From PubChem BioAssay (NCI)
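Cultured in 96-well plates, cells were exposed to test compound for 48 hours across five concentrations. GI50 = concentration required for 50% inhibition of growth. TGI marks complete inhibition of growth.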

Columns and labels:
Assay in all cases: growth of human tumour cells (NCI), 48 h
SK-MEL-5 melanoma = system: SK-MEL-5 melanoma
UACC-257 melanoma = system: UACC-257 melanoma
TK-10 renal = system: TK-10 renal
PC-3 prostate = system: PC-3 prostate
CCRF-CEM leukemia = system: CCRF-CEM leukemia
RXF 393 renal = system: RXF 393 renal
HOP-92 NSCLC = system: HOP-92 NSCLC
COLO 205 colon = system: COLO 205 colon
LOX IMVI melanoma = system: LOX IMVI melanoma
MOLT-4 leukemia = system: MOLT-4 leukemia

## CC(=O)Oc1cccc2c1C(=O)C(Br)(Br)CCC2
SK-MEL-5 melanoma
  TGI: 14.4 µM
UACC-257 melanoma
  TGI: 25 µM
TK-10 renal
  TGI: 30.8 µM
PC-3 prostate
  TGI: 16 µM
CCRF-CEM leukemia
  TGI: 9.91 µM
RXF 393 renal
  TGI: 12.6 µM
HOP-92 NSCLC
  TGI: 10.4 µM
COLO 205 colon
  TGI: 17.2 µM
LOX IMVI melanoma
  TGI: 6.26 µM
MOLT-4 leukemia
  TGI: 13.8 µM

## Cn1c2ccccc2c2nnc(N/N=C/c3ccccn3)nc21
SK-MEL-5 melanoma
  GI50: 0.24 µM
  TGI: 0.806 µM
UACC-257 melanoma
  GI50: 0.433 µM
TK-10 renal
  GI50: 0.413 µM
  TGI: > 57.8 µM
PC-3 prostate
  GI50: 1.44 µM
  TGI: > 100 µM
CCRF-CEM leukemia
  GI50: 0.301 µM
  TGI: > 33.1 µM
RXF 393 renal
  GI50: 2.8 µM
  TGI: > 42.3 µM
HOP-92 NSCLC
  GI50: 0.413 µM
  TGI: > 59.1 µM
COLO 205 colon
  GI50: 0.401 µM
  TGI: 18.5 µM
LOX IMVI melanoma
  GI50: 0.331 µM
  TGI: 3.33 µM
MOLT-4 leukemia
  GI50: 0.271 µM

## CC1(C)N=C(N)N=C(N)N1c1cccc(CCCCc2ccc(S(=O)(=O)F)cc2Cl)c1
SK-MEL-5 melanoma
  GI50: 1.87 µM
  TGI: 16.4 µM
UACC-257 melanoma
  GI50: 2.15 µM
  TGI: 20.8 µM
TK-10 renal
  GI50: 8.66 µM
  TGI: > 100 µM
PC-3 prostate
  GI50: 0.581 µM
  TGI: > 100 µM
CCRF-CEM leukemia
  GI50: 3.29 µM
  TGI: 36.5 µM
RXF 393 renal
  GI50: 9.46 µM
  TGI: > 87.3 µM
HOP-92 NSCLC
  GI50: 14 µM
  TGI: 47.8 µM
COLO 205 colon
  GI50: 5.37 µM
  TGI: 32.9 µM
LOX IMVI melanoma
  GI50: 1.34 µM
  TGI: > 41.7 µM
MOLT-4 leukemia
  GI50: 7.42 µM
  TGI: > 65.3 µM

## Cn1c2ccc([N+](=O)[O-])cc2c(=O)c2c(O)cc(O)cc21
SK-MEL-5 melanoma
  TGI: > 100 µM
UACC-257 melanoma
  TGI: > 100 µM
TK-10 renal
  TGI: > 100 µM
PC-3 prostate
  TGI: > 100 µM
CCRF-CEM leukemia
  TGI: > 100 µM
RXF 393 renal
  TGI: 52 µM
HOP-92 NSCLC
  TGI: 96.3 µM
COLO 205 colon
  TGI: > 100 µM
LOX IMVI melanoma
  TGI: > 100 µM
MOLT-4 leukemia
  TGI: > 100 µM

## CNC1NC(=O)c2ccccc2N1Cc1ccc(F)cc1 (stereo not drawn)
SK-MEL-5 melanoma
  TGI: > 100 µM
UACC-257 melanoma
  TGI: > 100 µM
TK-10 renal
  TGI: > 100 µM
PC-3 prostate
  TGI: > 100 µM
CCRF-CEM leukemia
  TGI: > 100 µM
RXF 393 renal
  TGI: > 100 µM
HOP-92 NSCLC
  TGI: > 100 µM
COLO 205 colon
  TGI: > 100 µM
LOX IMVI melanoma
  TGI: > 100 µM
MOLT-4 leukemia
  TGI: > 100 µM

## N#CSCC1CC(O)(c2ccccc2)C(c2ccccc2)C(c2ccc(F)cc2)O1 (stereo not drawn)
SK-MEL-5 melanoma
  GI50: 4.84 µM
  TGI: 17.2 µM
UACC-257 melanoma
  GI50: 3.66 µM
  TGI: 13.5 µM
TK-10 renal
  GI50: 2.38 µM
  TGI: 6.3 µM
PC-3 prostate
  GI50: 2.14 µM
  TGI: 11.3 µM
CCRF-CEM leukemia
  GI50: 3.09 µM
  TGI: > 100 µM
RXF 393 renal
  GI50: 2.22 µM
  TGI: 4.4 µM
HOP-92 NSCLC
  GI50: 2.13 µM
  TGI: 7.88 µM
COLO 205 colon
  GI50: 3.13 µM
  TGI: 9.97 µM
LOX IMVI melanoma
  GI50: 1.64 µM
  TGI: 3.18 µM
MOLT-4 leukemia
  GI50: 0.676 µM
  TGI: 4.51 µM

## c1ccc2[nH]c(-c3ccc(OCCCCCOc4ccc(-c5nc6ccccc6[nH]5)cc4)cc3)nc2c1
SK-MEL-5 melanoma
  GI50: 1.15 µM
  TGI: 4.94 µM
UACC-257 melanoma
  GI50: 1.65 µM
  TGI: 3.83 µM
TK-10 renal
  GI50: 2.05 µM
  TGI: 3.77 µM
PC-3 prostate
  GI50: 2.76 µM
  TGI: 8.05 µM
CCRF-CEM leukemia
  GI50: 0.195 µM
  TGI: 0.54 µM
RXF 393 renal
  GI50: 1.48 µM
  TGI: 3.08 µM
HOP-92 NSCLC
  GI50: 3.84 µM
  TGI: 10.1 µM
COLO 205 colon
  GI50: 7.83 µM
  TGI: > 34.5 µM
LOX IMVI melanoma
  GI50: 1.22 µM
  TGI: 2.57 µM
MOLT-4 leukemia
  GI50: 1.07 µM
  TGI: 3.48 µM

## COc1ccc(C(=O)c2cc(OC)c(OC)c(OC)c2)cc1O
SK-MEL-5 melanoma
  GI50: 0.0439 µM
  TGI: 0.315 µM
UACC-257 melanoma
  GI50: > 100 µM
  TGI: > 100 µM
TK-10 renal
  GI50: > 61.5 µM
  TGI: > 100 µM
PC-3 prostate
  GI50: 0.0285 µM
  TGI: > 100 µM
CCRF-CEM leukemia
  GI50: 0.0308 µM
  TGI: > 100 µM
RXF 393 renal
  GI50: 0.0167 µM
  TGI: > 100 µM
HOP-92 NSCLC
  GI50: 0.539 µM
  TGI: > 100 µM
COLO 205 colon
  GI50: 1.36 µM
  TGI: 13.3 µM
LOX IMVI melanoma
  GI50: 0.0114 µM
  TGI: > 100 µM
MOLT-4 leukemia
  GI50: 0.0367 µM
  TGI: > 100 µM

## CCOc1cc2ncc(C#N)c(Nc3ccc(F)c(Cl)c3)c2cc1NC(=O)/C=C/CN(C)C
SK-MEL-5 melanoma
  GI50: 2.93 µM
  TGI: > 10 µM
UACC-257 melanoma
  GI50: 1.27 µM
  TGI: > 6.03 µM
TK-10 renal
  GI50: 0.00445 µM
  TGI: 0.506 µM
PC-3 prostate
  GI50: 1.19 µM
  TGI: > 9 µM
CCRF-CEM leukemia
  GI50: 1.13 µM
  TGI: > 7.16 µM
RXF 393 renal
  GI50: 0.255 µM
  TGI: 3.46 µM
HOP-92 NSCLC
  GI50: 0.254 µM
  TGI: > 4.39 µM
COLO 205 colon
  GI50: 1.33 µM
  TGI: 2.83 µM
LOX IMVI melanoma
  GI50: 0.761 µM
  TGI: 2.14 µM
MOLT-4 leukemia
  GI50: 0.716 µM
  TGI: > 4.91 µM

## Cc1ccc(NS(=O)(=O)c2cc(C)ccc2C)cc1
SK-MEL-5 melanoma
  GI50: 2.79 µM
  TGI: 13.8 µM
UACC-257 melanoma
  GI50: 10.2 µM
  TGI: 47.4 µM
TK-10 renal
  GI50: 10.2 µM
  TGI: 37.7 µM
PC-3 prostate
  GI50: 11.4 µM
  TGI: 66.5 µM
CCRF-CEM leukemia
  GI50: 6.19 µM
  TGI: > 100 µM
RXF 393 renal
  GI50: 2.9 µM
  TGI: 16.7 µM
HOP-92 NSCLC
  GI50: 12.9 µM
  TGI: 34.6 µM
COLO 205 colon
  GI50: 3.49 µM
  TGI: 14.7 µM
LOX IMVI melanoma
  GI50: 5.13 µM
  TGI: 22.5 µM
MOLT-4 leukemia
  GI50: 5.43 µM
  TGI: > 100 µM

## COc1cccc(/C=C/C(=O)c2cc3c(N)c(C(=O)Nc4cccc(Cl)c4C)sc3nc2C)c1
SK-MEL-5 melanoma
  GI50: 1 µM
  TGI: 2.34 µM
UACC-257 melanoma
  GI50: 3.48 µM
  TGI: 20.9 µM
TK-10 renal
  GI50: 1.53 µM
  TGI: 8.19 µM
PC-3 prostate
  GI50: 1.43 µM
  TGI: 7.34 µM
CCRF-CEM leukemia
  GI50: 0.234 µM
  TGI: > 50 µM
RXF 393 renal
  GI50: 0.573 µM
  TGI: 1.29 µM
HOP-92 NSCLC
  GI50: 1.04 µM
  TGI: 3.16 µM
COLO 205 colon
  GI50: 1.38 µM
  TGI: 3.63 µM
LOX IMVI melanoma
  GI50: 0.676 µM
  TGI: 1.45 µM
MOLT-4 leukemia
  GI50: 1.26 µM
  TGI: > 50 µM
